Tests used:
[1] = Conversion of anhydrous diphosphate salt to monophosphate hydrate salt in water; format: physicochemical; details: in the presence of water or aqueous co-solvent mixtures
Text: The anhydrous diphosphate sale of AMG 706 is currently manufactured as a crystalline form. This crystalline form is used in the table formulations for clinical trials.
The monophosphate dihydrate salt was isolated and characterized by various analytical tools for its physico-chemical properties. Interconversion kinetics of anhydrous diphosphate to monophosphate dihydrate was studied under various conditions.

[2] = Solubility of AMG 706 anhydrous diphosphate salt in water over time; format: physicochemical; details: thermodynamic from solid
Procedure: AMG 706 anhydrous diphosphate (˜100 mg) salt was added to 2 mL of water and placed on a rotator stirrer. Multiple runs were performed each at different temperatures between about room temperature to about 40° C. Solid was isolated at various time points by vacuum filtering the supernatant and the material was air-dried overnight.

For CC1(C)CNc2cc(NC(=O)c3cccnc3NCc3ccncc3)ccc21 [AMG 706 anhydrous diphosphate, N-(2,3-dihydro-3,3-dimethyl-1H-indol-6-yl)-2-[(4-pyridinylmethyl)amino]-3-pyridinecarboxamide], the “Solid-form stability (disproportionation/conversion)” value [1] was “can disproportionate and convert to a more stable monophosphate hydrate salt”, the solubility at 0.5 hr ([2]; time 0.5 hr, RT, pH 2.6) was 22 mg/mL and the solubility at 1 hr ([2]; time 1.0 hr, RT, pH 2.7) was 21 mg/mL. For the same compound, the solubility at 3 hr ([2]; time 3.0 hr, RT, pH 2.7) was 21 mg/mL, the solubility at 6 hr ([2]; 40 C, pH 2.6) was 20 mg/mL and the solubility at 6 hr ([2]; RT, pH 2.6) was 21 mg/mL. It also gave a solubility at 24 hr ([2]; 40 C, pH 3.0) of 26 mg/mL and a solubility at 24 hr ([2]; RT, pH 2.9) of 21 mg/mL.

Reference: patent publication US7989631B2, “Hydrate forms of AMG706” (Amgen Inc., priority 2006, dated 2011)
